Laboratory results published in ChEMBL document CHEMBL3091315, “PDE2 inhibition: potential for the treatment of cognitive disorders” (Bioorg Med Chem Lett, 2013).
One block for each compound: values may come before it.

Key:
[1] = molecular target: T1, cGMP-dependent 3',5'-cyclic phosphodiesterase (Homo sapiens, UniProt O00408); assay type: cell-based, SF-21
Description: Inhibition of recombinant PDE2A (unknown origin) expressed in baculovirus infected insect SF-21 cells using [3H]-cAMP as substrate after 30 mins by liquid scintillation counting analysis

[2] = Clearance in iv dosed rat; assay type: ADME, organism-based; details: in vivo
[3] = Half life in iv dosed rat; assay type: ADME, organism-based; details: in vivo
Bos taurus [4] = species on record: Bos taurus; experiment: Inhibition of bovine vascular smooth muscle PDE4 using cAMP/cGMP as substrate at 10 uM relative to control; assay type: tissue-based; details: Muscle tissue
Bos taurus [5] = species on record: Bos taurus; experiment: Inhibition of bovine vascular smooth muscle PDE3 using cAMP/cGMP as substrate at 10 uM relative to control; assay type: tissue-based; details: Muscle tissue
[6] = molecular target: T2, cAMP and cAMP-inhibited cGMP 3',5'-cyclic phosphodiesterase 10A (Homo sapiens, UniProt Q9Y233)
T2 sequence (Q9Y233 whole entry): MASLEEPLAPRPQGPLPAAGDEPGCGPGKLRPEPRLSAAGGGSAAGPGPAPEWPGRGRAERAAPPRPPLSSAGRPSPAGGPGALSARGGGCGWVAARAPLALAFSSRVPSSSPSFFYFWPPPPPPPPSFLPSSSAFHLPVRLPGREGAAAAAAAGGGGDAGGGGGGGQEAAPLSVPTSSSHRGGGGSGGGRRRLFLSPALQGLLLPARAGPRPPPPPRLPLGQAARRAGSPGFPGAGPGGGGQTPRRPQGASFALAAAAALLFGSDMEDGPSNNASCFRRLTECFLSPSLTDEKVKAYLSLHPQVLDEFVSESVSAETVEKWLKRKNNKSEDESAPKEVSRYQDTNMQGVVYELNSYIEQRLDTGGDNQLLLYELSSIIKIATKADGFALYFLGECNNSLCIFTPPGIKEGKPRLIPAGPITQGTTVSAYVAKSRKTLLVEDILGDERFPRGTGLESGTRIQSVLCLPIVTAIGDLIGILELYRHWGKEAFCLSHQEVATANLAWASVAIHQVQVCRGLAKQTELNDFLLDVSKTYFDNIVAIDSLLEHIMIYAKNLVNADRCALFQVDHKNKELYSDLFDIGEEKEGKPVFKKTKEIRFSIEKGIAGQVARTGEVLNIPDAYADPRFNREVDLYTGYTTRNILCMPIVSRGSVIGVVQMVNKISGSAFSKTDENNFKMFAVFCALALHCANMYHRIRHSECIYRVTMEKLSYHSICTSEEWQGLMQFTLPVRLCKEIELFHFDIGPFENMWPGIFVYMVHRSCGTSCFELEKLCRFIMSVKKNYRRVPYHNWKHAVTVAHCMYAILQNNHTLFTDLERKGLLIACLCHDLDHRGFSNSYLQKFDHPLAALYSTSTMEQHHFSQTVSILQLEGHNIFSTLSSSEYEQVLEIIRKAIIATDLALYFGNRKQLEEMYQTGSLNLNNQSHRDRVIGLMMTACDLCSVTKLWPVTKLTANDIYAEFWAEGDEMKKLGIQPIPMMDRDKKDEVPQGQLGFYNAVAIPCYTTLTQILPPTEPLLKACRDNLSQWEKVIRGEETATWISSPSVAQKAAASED
Description: Inhibition of PDE10A (unknown origin) using tritium labeled cAMP as substrate after 1 hr by scintillation proximity assay

[7] = molecular target: T1, cGMP-dependent 3',5'-cyclic phosphodiesterase
Description: Inhibition of PDE2A (unknown origin) using tritium labeled cAMP as substrate after 1 hr by scintillation proximity assay

[8] = Selectivity ratio of IC50 for PDE (unknown origin) to IC50 for porcine/bovine heart myocardium PDE2; assay type: tissue-based
[9] = Selectivity ratio of IC50 for porcine/bovine PDE1C to IC50 for porcine/bovine heart myocardium PDE2; assay type: tissue-based
[10] = Inhibition of pig/bovine heart myocardium PDE2 after 15 mins by scintillation proximity assay in presence of [3H]-cAMP; assay type: tissue-based
[11] = Ratio of unbound drug level in brain to plasma in rat; details: brain and plasma (unbound), read-out: K(p,uu,brain)
[12] = Drug uptake in Wistar rat striatum at 0.03 mg/kg, iv after 5 mins by LC-MS analysis; assay type: ADME, organism-based; parameters: dose 0.03 mg/kg, route intravenous; details: read-out: Drug uptake
Homo sapiens [13] = species on record: Homo sapiens; experiment: Selectivity ratio of IC50 for human PDE10A to IC50 for human PDE2A
Cerebellum [14] = experiment: Biodistribution in cerebellum of rat measured at 10 mins by microPET image analysis; assay type: ADME, organism-based; details: in vivo
Cerebellum [15] = experiment: Biodistribution in cerebellum of rat measured at 2 mins by microPET image analysis; assay type: ADME, organism-based; details: in vivo
Cerebrum [16] = experiment: Biodistribution in cerebrum of rat measured at 10 mins by microPET image analysis; assay type: ADME, organism-based; details: in vivo
Cerebrum [17] = experiment: Biodistribution in cerebrum of rat measured at 2 mins by microPET image analysis; assay type: ADME, organism-based; details: in vivo
[18] = molecular target: T2, cAMP and cAMP-inhibited cGMP 3',5'-cyclic phosphodiesterase 10A; experiment: Inhibition of recombinant PDE10A (unknown origin) expressed in baculovirus infected insect SF-21 cells using [3H]-cAMP as substrate after 30 mins by liquid scintillation counting analysis
Homo sapiens [19] = species on record: Homo sapiens; experiment: Selectivity ratio of IC50 for PDE9A (unknown origin) to IC50 for full length recombinant human PDE2A; details: tested as the 18F-labelled form
Homo sapiens [20] = species on record: Homo sapiens; experiment: Selectivity ratio of IC50 for PDE11 (unknown origin) to IC50 for full length recombinant human PDE2A; details: tested as the 18F-labelled form
Homo sapiens [21] = species on record: Homo sapiens; experiment: Selectivity ratio of IC50 for PDE8B (unknown origin) to IC50 for full length recombinant human PDE2A; details: tested as the 18F-labelled form
Homo sapiens [22] = species on record: Homo sapiens; experiment: Selectivity ratio of IC50 for PDE7B (unknown origin) to IC50 for full length recombinant human PDE2A; details: tested as the 18F-labelled form
Homo sapiens [23] = species on record: Homo sapiens; experiment: Selectivity ratio of IC50 for PDE6A (unknown origin) to IC50 for full length recombinant human PDE2A; details: tested as the 18F-labelled form
Homo sapiens [24] = species on record: Homo sapiens; experiment: Selectivity ratio of IC50 for PDE4D (unknown origin) to IC50 for full length recombinant human PDE2A; details: tested as the 18F-labelled form
Homo sapiens [25] = species on record: Homo sapiens; experiment: Selectivity ratio of IC50 for PDE5A (unknown origin) to IC50 for full length recombinant human PDE2A; details: tested as the 18F-labelled form
Homo sapiens [26] = species on record: Homo sapiens; experiment: Selectivity ratio of IC50 for PDE3A (unknown origin) to IC50 for full length recombinant human PDE2A; details: tested as the 18F-labelled form
Homo sapiens [27] = species on record: Homo sapiens; experiment: Selectivity ratio of IC50 for PDE1B (unknown origin) to IC50 for full length recombinant human PDE2A; details: tested as the 18F-labelled form

T1 sequence (O00408 whole entry): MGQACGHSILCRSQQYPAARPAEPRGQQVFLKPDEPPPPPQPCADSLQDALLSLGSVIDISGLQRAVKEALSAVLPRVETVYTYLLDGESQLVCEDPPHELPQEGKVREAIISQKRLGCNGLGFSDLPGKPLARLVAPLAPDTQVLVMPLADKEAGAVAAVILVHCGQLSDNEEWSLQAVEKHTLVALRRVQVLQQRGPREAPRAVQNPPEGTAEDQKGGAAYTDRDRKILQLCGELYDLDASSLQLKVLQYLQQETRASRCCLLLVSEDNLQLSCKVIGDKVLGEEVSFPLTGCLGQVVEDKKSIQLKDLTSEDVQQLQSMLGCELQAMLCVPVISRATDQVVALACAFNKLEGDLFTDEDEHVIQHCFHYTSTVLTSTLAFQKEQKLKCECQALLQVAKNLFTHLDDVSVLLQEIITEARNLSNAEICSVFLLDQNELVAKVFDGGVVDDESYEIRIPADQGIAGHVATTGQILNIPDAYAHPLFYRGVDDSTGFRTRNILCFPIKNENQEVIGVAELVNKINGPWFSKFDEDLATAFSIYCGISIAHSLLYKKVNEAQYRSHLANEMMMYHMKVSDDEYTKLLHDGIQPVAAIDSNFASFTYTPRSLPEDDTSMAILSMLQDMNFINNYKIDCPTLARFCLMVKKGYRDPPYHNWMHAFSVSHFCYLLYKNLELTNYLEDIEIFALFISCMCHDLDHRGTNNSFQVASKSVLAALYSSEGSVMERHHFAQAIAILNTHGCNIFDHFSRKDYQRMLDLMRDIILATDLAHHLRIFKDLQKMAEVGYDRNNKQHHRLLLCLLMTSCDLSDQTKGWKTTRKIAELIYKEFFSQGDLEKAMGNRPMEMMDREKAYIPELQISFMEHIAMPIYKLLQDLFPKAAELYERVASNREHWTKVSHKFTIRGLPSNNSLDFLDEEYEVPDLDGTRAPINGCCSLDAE

Structure (SMILES): COc1ccc2nnc3c(C)nc(-c4ccccc4Cl)n3c2n1
- IC50 [1]: 4 nM

Structure (SMILES): COc1cc2c(cc1-c1ccccc1)C(c1cccc(C(N)=O)c1)=NCC(=O)N2C
- inhibition (Bos taurus [4]): 14%
- inhibition (Bos taurus [5]): 23%

Structure (SMILES): COc1cccc2nc(C)c3nnc(-c4ccccc4Cl)n3c12
- IC50 [6]: 9 nM
- IC50 [7]: 6 nM

Structure (SMILES): Cc1nc(-c2cnn(C)c2-c2ccc(C(F)(F)F)cn2)c2c(N3CCC3)ncnn12 [PF-05180999]
- Kp uu [11]: 0.5

Structure (SMILES): COc1ncc(-c2cc(C3=Nc4c(C(C)(C)C)nn(CCO)c4C(=O)NC3)ccc2OC)cn1
- clearance [2]: 27 mL/min/kg
- half-life [3]: 1.5 h

Structure (SMILES): Cc1ccc2nc(C)c3nnc(-c4cc(OCCCC(F)(F)F)ccc4Cl)n3c2c1
- IC50 [18]: > 1000 nM

More lines, main results first:

- clearance [2]: 70 mL/min/kg
- half-life [3]: 0.5 h
Structure (SMILES): CCC(CC)c1nn(CCO)c2c1N=C(c1ccc(-n3ccnc3C)cc1)CNC2=O

- IC50 [10]: 2 nM
Structure (SMILES): COc1ccc(Cc2nc(O)c3c(C)nc([C@@H](CCCc4ccccc4)[C@@H](C)O)n3n2)cc1OC
- Ratio IC50 [8]: > 100
- Ratio IC50 [9]: 50

- concentration at 5 min [12]: 70 ng/g
- Ratio IC50 (Homo sapiens [13]): > 600
Structure (SMILES): Cc1nc2ccc(CN3CCOCC3)cc2n2c(-c3ccccc3Cl)nnc12

- Drug uptake (Cerebellum [14]): 82%
- Drug uptake (Cerebellum [15]): 96%
- Drug uptake (Cerebrum [16]): 92%
- Drug uptake (Cerebrum [17]): 96%
Structure (SMILES): Cc1nc2ccc(CN3CCOCC3)cc2n2c(-c3c([18F])cccc3Cl)nnc12

- Ratio IC50 (Homo sapiens [19]): > 20000
- Ratio IC50 (Homo sapiens [20]): > 20000
- Ratio IC50 (Homo sapiens [21]): > 20000
- Ratio IC50 (Homo sapiens [22]): > 20000
- Ratio IC50 (Homo sapiens [23]): > 20000
- Ratio IC50 (Homo sapiens [24]): > 20000
- Ratio IC50 (Homo sapiens [25]): > 20000
- Ratio IC50 (Homo sapiens [26]): > 20000
- Ratio IC50 (Homo sapiens [27]): > 20000
Structure (SMILES): Cc1nc(-c2cnn(C)c2-c2ccc(C(F)(F)F)cc2)c2c(N3CC(F)C3)ncnn12
